Patent US20150148759A1, “Pharmaceutical Patch for Transdermal Administration of Tapentadol” (Gruenenthal GmbH, priority 2012, published 2015)
In brackets after ≈: the same amount, converted by molar mass. Several values for one entry are separate records, joined by “and”; a condition that tells them apart may be missing. Equal entries are not always repeated. Structures can show the parent of a compound that is named as a salt. Where two headings read alike, the source gives them in different places.

Legend:
[1] = solubility of API and API HCl in different solvents; assay type: physicochemical
Description: The solubility of API and API HCl in different organic solvents and aqueous solutions is tested by transferring defined volumes of the solvents into micro vials. API and API HCl, respectively, are added until saturation. The solutions are centrifuged and the supernatants analyzed by HPLC (Table 1).

[2] = compatibility of API HCl with different adhesives; assay type: physicochemical
Description: The compatibility of the hydrochloride salt of Tapentadol (API HCl) with different types of adhesives is tested (Table 2).
Duro-Tak 87-900A: non-functional acrylic (no hydroxyl, no carboxyl groups), non-curing
Duro-Tak 87-4287: hydroxyl-functionalized polyacrylate-vinylacetate copolymer, non-curing
Duro-Tak 87-2677: carboxylate-functionalized polyacrylate-vinylacetate copolymer, self-curing
Duro-Tak 87-6911 A: tackified styrene rubber (styrene-block-butadiene-block-styrene), not functionalized
Bio PSA 7-4502: silicone adhesive.

hairless mouse skin = assay: in-vitro skin permeation from donor solution, Franz-diffusion cell; assay type: in vitro ADME
Description: Saturated solutions of API and API HCl were prepared in a mixture of ethanol and dodecanol (95:5) and ethanol and oleic acid (85:15), respectively.
An in-vitro permeation study was performed with the saturated solutions to show permeation of drug through mouse skin. The in-vitro experiments were conducted using a Franz-diffusion cell. The Franz-diffusion cell consists of a donor compartment and an acceptor compartment. • Skin: hairless mouse skin, female, age 6-7 weeks • Stem: Hsd: Athymic Nude-Foxn1^nu • Dermal tissue: dorsal and abdominal with all dermal layers • Breeder: Harlan Laboratories GmbH • Acceptor medium: HEPES buffer pH 7.2 • Volume acceptor: 15 mL • Volume donor: 1.0 mL • Donor solutions: • API HCl in ethanol/dodecanol (95/5) • API HCl in ethanol/oleic acid (85/15) • API in ethanol/dodecanol (95/5) • API in ethanol/oleic acid (85/15) • Permeation area: ˜1.00 cm^2 • Temperature in donor solution: 32±0.5° C. • Sampling times: 3 h, 6 h, 12 h, 18 h, 24 h • Sampling: automatic sampling system #115 • Rinsed volume: ˜7.0 mL • Sample volume: 1.0 mL • Replaced volume: 8.0 mL • Standards: • API HCl in acceptor medium • c(std A)=86.12 μg/mL • c(std B)=8.612 μg/mL • HPLC method: see above • Injection volume: variable between 3-15 μL and adjusted dilution factor

pain = assay: preliminary clinical trials, pain treating effect (visual analog scale); assay type: in vivo, human
Excerpt: Low serum concentrations of Tapentadol suffice to show an effect in individuals that are relatively sensitive and higher serum concentrations of Tapentadol are needed to show an effect in persons that are relatively unsensitive.

[3] = donor ethanol/dodecanol (95:5), time between sampling 6 h, 5th interval (sampling at 24 h)
[4] = donor ethanol/dodecanol (95:5), total dissolution time 3 h
[5] = donor ethanol/dodecanol (95:5), total dissolution time 6 h
[6] = donor ethanol/dodecanol (95:5), total dissolution time 12 h
[7] = donor ethanol/oleic (85:15), time between sampling 3 h, 1st interval (sampling at 3 h)
[8] = donor ethanol/oleic (85:15), time between sampling 3 h, 2nd interval (sampling at 6 h)
[9] = donor ethanol/oleic (85:15), time between sampling 6 h, 3rd interval (sampling at 12 h)
[10] = donor ethanol/oleic (85:15), time between sampling 6 h, 5th interval (sampling at 24 h)
[11] = donor ethanol/oleic (85:15), total dissolution time 3 h
[12] = donor ethanol/oleic (85:15), total dissolution time 6 h
[13] = donor ethanol/oleic (85:15), total dissolution time 12 h
[14] = donor ethanol/oleic (85:15), total dissolution time 18 h
[15] = donor ethanol/oleic (85:15), total dissolution time 24 h
[16] = donor ethanol/oleic (85:15), total time 3 h
[17] = donor ethanol/oleic (85:15), total time 6 h
[18] = donor ethanol/oleic (85:15), total time 12 h
[19] = donor ethanol/oleic (85:15), total time 18 h
[20] = donor ethanol/oleic (85:15), total time 24 h
[21] = donor ethanol/dodecanol (95:5), total dissolution time 18 h
[22] = donor ethanol/dodecanol (95:5), total dissolution time 24 h

Structure (SMILES): CC[C@@H](c1cccc(O)c1)[C@@H](C)CN(C)C [API HCl]
- solubility ([1]; HEPES (pH = 7.2)): 286 mg/mL
- solubility ([1]; acetone): 0.92 mg/mL
- solubility ([1]; aqueous solutions): excellent solubility
- solubility ([1]; ethanol): 33.1 mg/mL
- solubility ([1]; ethylacetate): 4.46 mg/mL
- solubility ([1]; organic solvents like ethylacetate or acetone, ethanol and n-heptane): hardly soluble
- solubility ([1]; water (pH = 5.8)): 298 mg/mL
- appearance of solution ([2]; carboxylate-functionalized DT 87-2677): yellowish solutions are clear
- appearance of solution ([2]; hydroxyl-functionalized polymer DT 87-4287): opaque solutions which turn slightly yellow after two weeks at room temperature
- appearance of solution ([2]; non-functionalized DT 87-900A): clear and colorless
- appearance of solution ([2]; silicone adhesive Bio PSA 7-4502, 2 and 5% of API HCl): clear and colorless
- flux (hairless mouse skin; [3]): 810.2 μg/cm^2h and 480.5 μg/cm^2h
- permeated amount of API or API HCl (hairless mouse skin; [4]): 0.8% and 0.2%
- permeated amount of API or API HCl (hairless mouse skin; [5]): 2.1% and 0.7%
- permeated amount of API or API HCl (hairless mouse skin; [6]): 8.0% and 2.6%
- flux (hairless mouse skin; [7]): 55.4 μg/cm^2h and 63.3 μg/cm^2h
- flux (hairless mouse skin; [8]): 107.6 μg/cm^2h and 142.2 μg/cm^2h
- flux (hairless mouse skin; [9]): 205.0 μg/cm^2h and 234.1 μg/cm^2h
- flux (hairless mouse skin; donor ethanol/oleic (85:15), time between sampling 6 h, 4th interval (sampling at 18 h)): 142.8 μg/cm^2h and 155.3 μg/cm^2h
- flux (hairless mouse skin; [10]): 114.7 μg/cm^2h and 115.8 μg/cm^2h
- permeated amount of API or API HCl (hairless mouse skin; [11]): 0.4% and 0.5%
- total permeated amount of API or API HCl (hairless mouse skin; [11]): 166.2 μg/cm^2 and 189.9 μg/cm^2
- permeated amount of API or API HCl (hairless mouse skin; [12]): 1.2% and 1.6%
- total permeated amount of API or API HCl (hairless mouse skin; [12]): 489.0 μg/cm^2 and 616.7 μg/cm^2
- permeated amount of API or API HCl (hairless mouse skin; [13]): 4.4% and 5.1%
- total permeated amount of API or API HCl (hairless mouse skin; [13]): 1718.7 μg/cm^2 and 2021.1 μg/cm^2
- permeated amount of API or API HCl (hairless mouse skin; [14]): 6.5% and 7.5%
- total permeated amount of API or API HCl (hairless mouse skin; [14]): 2575.7 μg/cm^2 and 2953.1 μg/cm^2
- permeated amount of API or API HCl (hairless mouse skin; [15]): 8.3% and 9.3%
- total permeated amount of API or API HCl (hairless mouse skin; [15]): 3263.7 μg/cm^2 and 3647.7 μg/cm^2
- concentration of API or API HCl in sample solution (hairless mouse skin; [16]): 10.859 µg/mL and 12.409 µg/mL
- concentration of API or API HCl in sample solution (hairless mouse skin; [17]): 26.807 µg/mL and 34.414 µg/mL
- concentration of API or API HCl in sample solution (hairless mouse skin; [18]): 94.462 µg/mL and 109.882 µg/mL
- concentration of API or API HCl in sample solution (hairless mouse skin; [19]): 105.741 µg/mL and 118.759 µg/mL
- concentration of API or API HCl in sample solution (hairless mouse skin; [20]): 100.635 µg/mL and 107.927 µg/mL

Structure (SMILES): CC[C@@H](c1cccc(O)c1)[C@@H](C)CN(C)C [API, 3-[(1R,2R)-3-(dimethylamino)-1-ethyl-2-methylpropyl]phenol]
- solubility ([1]; HEPES (pH = 7.2)): 5.43 mg/mL (≈ 24.5 mM)
- solubility ([1]; acetone): 332 mg/mL (≈ 1500 mM)
- dissolved amounts of API ([1]; aqueous solutions): ≤ 5.5 mg/mL
- solubility ([1]; ethanol): 404 mg/mL (≈ 1830 mM)
- solubility ([1]; ethylacetate): 232 mg/mL (≈ 1050 mM)
- solubility ([1]; n-heptane, organic solvent or mixture, thermodynamic from solid, n-heptane, read-out: solubility): 1.27 mg/mL (≈ 5.74 mM)
- API contents measured ([1]; organic solvents other than n-heptane): higher than 230 mg/mL
- solubility ([1]; water (pH = 5.8)): 0.48 mg/mL (≈ 2.17 mM)
- passes across the skin barrier (hairless mouse skin; compared with the hydrochloride of Tapentadol): much better
- flux (hairless mouse skin; donor ethanol/dodecanol (95:5), time between sampling 3 h, 1st interval (sampling at 3 h)): 178.1 μg/cm^2h and 263.3 μg/cm^2h
- flux (hairless mouse skin; donor ethanol/dodecanol (95:5), time between sampling 3 h, 2nd interval (sampling at 6 h)): 314.1 μg/cm^2h and 398.7 μg/cm^2h
- flux (hairless mouse skin; donor ethanol/dodecanol (95:5), time between sampling 6 h, 3rd interval (sampling at 12 h)): 789.1 μg/cm^2h and 1056.3 μg/cm^2h
- flux (hairless mouse skin; donor ethanol/dodecanol (95:5), time between sampling 6 h, 4th interval (sampling at 18 h)): 2405.6 μg/cm^2h and 2492.9 μg/cm^2h
- flux (hairless mouse skin; [3]): 1028.9 μg/cm^2h and 1038.6 μg/cm^2h
- permeated amount of API or API HCl (hairless mouse skin; [4]): 1.0% and 1.5%
- total permeated amount of API or API HCl (hairless mouse skin; [4]): 534.4 μg/cm^2 and 789.9 μg/cm^2
- permeated amount of API or API HCl (hairless mouse skin; [5]): 2.9% and 3.9%
- total permeated amount of API or API HCl (hairless mouse skin; [5]): 1476.8 μg/cm^2 and 1986.1 μg/cm^2
- permeated amount of API or API HCl (hairless mouse skin; [6]): 12.1% and 16.2%
- total permeated amount of API or API HCl (hairless mouse skin; [6]): 6211.5 μg/cm^2 and 8324.0 μg/cm^2
- permeated amount of API or API HCl (hairless mouse skin; [21]): 40.2% and 45.4%
- total permeated amount of API or API HCl (hairless mouse skin; [21]): 20644.9 μg/cm^2 and 23281.6 μg/cm^2
- permeated amount of API or API HCl (hairless mouse skin; [22]): 52.3% and 57.5%
- total permeated amount of API or API HCl (hairless mouse skin; [22]): 26818.4 μg/cm^2 and 29513.4 μg/cm^2
- concentration of API or API HCl in sample solution (hairless mouse skin; donor ethanol/dodecanol (95:5), total time 3 h): 34.914 µg/mL and 51.610 µg/mL
- concentration of API or API HCl in sample solution (hairless mouse skin; donor ethanol/dodecanol (95:5), total time 6 h): 79.955 µg/mL and 105.327 µg/mL
- concentration of API or API HCl in sample solution (hairless mouse skin; donor ethanol/dodecanol (95:5), total time 12 h): 351.444 µg/mL and 469.548 µg/mL
- concentration of API or API HCl in sample solution (hairless mouse skin; donor ethanol/dodecanol (95:5), total time 18 h): 1128.078 µg/mL and 1224.529 µg/mL
- concentration of API or API HCl in sample solution (hairless mouse skin; donor ethanol/dodecanol (95:5), total time 24 h): 997.460 µg/mL and 1052.063 µg/mL
- flux (hairless mouse skin; [7]): 273.5 μg/cm^2h and 441.9 μg/cm^2h
- flux (hairless mouse skin; [8]): 1279.0 μg/cm^2h and 1897.8 μg/cm^2h
- flux (hairless mouse skin; [9]): 458.8 μg/cm^2h and 247.0 μg/cm^2h
- flux (hairless mouse skin; [10]): 572.1 μg/cm^2h and 382.5 μg/cm^2h
- permeated amount of API or API HCl (hairless mouse skin; [11]): 1.7% and 2.7%
- total permeated amount of API or API HCl (hairless mouse skin; [11]): 820.5 μg/cm^2 and 1325.6 μg/cm^2
- permeated amount of API or API HCl (hairless mouse skin; [12]): 9.5% and 14.3%
- total permeated amount of API or API HCl (hairless mouse skin; [12]): 4657.4 μg/cm^2 and 7019.0 μg/cm^2
- permeated amount of API or API HCl (hairless mouse skin; [13]): 15.1% and 17.3%
- total permeated amount of API or API HCl (hairless mouse skin; [13]): 7410.5 μg/cm^2 and 8500.8 μg/cm^2
- permeated amount of API or API HCl (hairless mouse skin; [14]): 17.9% and 26.6%
- total permeated amount of API or API HCl (hairless mouse skin; [14]): 8799.1 μg/cm^2 and 13084.6 μg/cm^2
- permeated amount of API or API HCl (hairless mouse skin; [15]): 24.9% and 31.3%
- total permeated amount of API or API HCl (hairless mouse skin; [15]): 12231.6 μg/cm^2 and 15379.8 μg/cm^2
- concentration of API or API HCl in sample solution (hairless mouse skin; [16]): 53.604 µg/mL and 86.606 µg/mL
- concentration of API or API HCl in sample solution (hairless mouse skin; [17]): 278.914 µg/mL and 417.581 µg/mL
- concentration of API or API HCl in sample solution (hairless mouse skin; [18]): 326.763 µg/mL and 316.739 µg/mL
- concentration of API or API HCl in sample solution (hairless mouse skin; [19]): 262.813 µg/mL and 466.288 µg/mL
- concentration of API or API HCl in sample solution (hairless mouse skin; [20]): 362.673 µg/mL and 395.534 µg/mL

Structure (SMILES): CC[C@@H](c1cccc(O)c1)[C@@H](C)CN(C)C [Tapentadol, 3-[(1R,2R)-3-(dimethylamino)-1-ethyl-2-methylpropyl]phenol]
- visual analog scale (VAS) in a population mean (pain; serum concentration about 5 ng·ml^−1): approximately −2 mm
- visual analog scale (VAS) in a population mean (pain; serum concentration about 300 ng·ml^−1): approximately −15 mm
